Assay results from article PMC10893631, “Receptor-based pharmacophore modeling, molecular docking, synthesis and biological evaluation of novel VEGFR-2, FGFR-1, and BRAF multi-kinase inhibitors” (BMC Chemistry, 2024).

Legend:
Assay in all cases: NCI SRB growth inhibition (single dose 10 µM / five-dose)
Format in all cases: cell-based, human
A498 = conditions: Homo sapiens; for inhibition at 10 µM: A498 (Renal cancer), read-out: GI%; for GI50: A498, Renal cancer, five-dose
Summary of the method: (§1)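 Cytotoxicity in the NCI panel of sixty human tumour lines was measured by sulforhodamine B protein staining. Each agent was tested in DMSO-derived dilutions at five concentrations, and TGI was read where treated absorbance equalled time-zero absorbance.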

CCRF-CEM = conditions: Homo sapiens; for inhibition at 10 µM: CCRF-CEM (Leukemia), read-out: GI%; for GI50: CCRF-CEM, Leukemia, five-dose
Summary of the method: as §1

HCT-15 = conditions: Homo sapiens; for inhibition at 10 µM: HCT-15 (Colon cancer), read-out: GI%; for GI50: HCT-15, Colon cancer, five-dose
Summary of the method: as §1

HOP-62 = conditions: Homo sapiens; for GI50: HOP-62, Non-small cell lung cancer, five-dose
Summary of the method: as §1

HOP-92 = conditions: Homo sapiens; for inhibition at 10 µM: HOP-92 (Non-small cell lung cancer), read-out: GI%; for GI50: HOP-92, Non-small cell lung cancer, five-dose
Summary of the method: as §1

HT29 = conditions: Homo sapiens, HT-29; for inhibition at 10 µM: HT29 (Colon cancer), read-out: GI%; for GI50: HT29, Colon cancer, five-dose
Summary of the method: as §1

IGROV1 = conditions: Homo sapiens, IGROV-1; for inhibition at 10 µM: IGROV1 (Ovarian cancer), read-out: GI%; for GI50: IGROV1, Ovarian cancer, five-dose
Summary of the method: as §1

KM12 = conditions: Homo sapiens; for inhibition at 10 µM: KM12 (Colon cancer), read-out: GI%; for GI50: KM12, Colon cancer, five-dose
Summary of the method: as §1

MDA-MB-231/ATCC = conditions: Homo sapiens; for inhibition at 10 µM: MDA-MB-231/ATCC (Breast cancer), read-out: GI%; for GI50: MDA-MB-231/ATCC, Breast cancer, five-dose
Summary of the method: as §1

MDA-MB-435 = conditions: Homo sapiens; for inhibition at 10 µM: MDA-MB-435 (Melanoma), read-out: GI%; for GI50: MDA-MB-435, Melanoma, five-dose
Summary of the method: as §1

NCI-H226 = conditions: Homo sapiens; for inhibition at 10 µM: NCI-H226 (Non-small cell lung cancer), read-out: GI%; for GI50: NCI-H226, Non-small cell lung cancer, five-dose
Summary of the method: as §1

NCI-H23 = conditions: Homo sapiens; for inhibition at 10 µM: NCI-H23 (Non-small cell lung cancer), read-out: GI%; for GI50: NCI-H23, Non-small cell lung cancer, five-dose
Summary of the method: as §1

NCI-H460 = conditions: Homo sapiens; for inhibition at 10 µM: NCI-H460 (Non-small cell lung cancer), read-out: GI%; for GI50: NCI-H460, Non-small cell lung cancer, five-dose
Summary of the method: as §1

NCI-H522 = conditions: Homo sapiens; for inhibition at 10 µM: NCI-H522 (Non-small cell lung cancer), read-out: GI%; for GI50: NCI-H522, Non-small cell lung cancer, five-dose
Summary of the method: as §1

NCI/ADR-RES = conditions: Homo sapiens; for inhibition at 10 µM: NCI/ADR-RES (Ovarian cancer), read-out: GI%
Summary of the method: as §1

OVCAR-3 = conditions: Homo sapiens; for inhibition at 10 µM: OVCAR-3 (Ovarian cancer), read-out: GI%; for GI50: OVCAR-3, Ovarian cancer, five-dose
Summary of the method: as §1

PC-3 = conditions: Homo sapiens; for inhibition at 10 µM: PC-3 (Prostate cancer), read-out: GI%; for GI50: PC-3, Prostate cancer, five-dose
Summary of the method: as §1

RXF 393 = conditions: Homo sapiens; for inhibition at 10 µM: RXF 393 (Renal cancer), read-out: GI%; for GI50: RXF 393, Renal cancer, five-dose
Summary of the method: as §1

SF-268 = conditions: Homo sapiens; for inhibition at 10 µM: SF-268 (CNS cancer), read-out: GI%; for GI50: SF-268, CNS cancer, five-dose
Summary of the method: as §1

SF-295 = conditions: Homo sapiens; for inhibition at 10 µM: SF-295 (CNS cancer), read-out: GI%; for GI50: SF-295, CNS cancer, five-dose
Summary of the method: as §1

SK-MEL-28 = conditions: Homo sapiens; for inhibition at 10 µM: SK-MEL-28 (Melanoma), read-out: GI%; for GI50: SK-MEL-28, Melanoma, five-dose
Summary of the method: as §1

SK-MEL-5 = conditions: Homo sapiens; for inhibition at 10 µM: SK-MEL-5 (Melanoma), read-out: GI%; for GI50: SK-MEL-5, Melanoma, five-dose
Summary of the method: as §1

SK-OV-3 = conditions: Homo sapiens; for GI50: SK-OV-3, Ovarian cancer, five-dose
Summary of the method: as §1

SN12C = conditions: Homo sapiens; for GI50: SN12C, Renal cancer, five-dose
Summary of the method: as §1

SNB-75 = conditions: Homo sapiens; for inhibition at 10 µM: SNB-75 (CNS cancer), read-out: GI%; for GI50: SNB-75, CNS cancer, five-dose
Summary of the method: as §1

U251 = conditions: Homo sapiens, U-251; for inhibition at 10 µM: U251 (CNS cancer), read-out: GI%; for GI50: U251, CNS cancer, five-dose
Summary of the method: as §1

## COc1cc(C=NNC(=O)c2ccc3[nH]c(-c4ccc(Cl)cc4)nc3c2)cc(OC)c1OC [8u, 2-(4-Chlorophenyl)-N'-(3,4,5-trimethoxybenzylidene)-1H-benzo[d]imidazole-5-carbohydrazide]
A498
  inhibition at 10 µM: > 100%
  GI50: 26.4 µM
CCRF-CEM
  inhibition at 10 µM: > 100%
  GI50: 6.27 µM
HCT-15
  inhibition at 10 µM: 44.3%
  GI50: 73 µM
HOP-62; HOP-62 (Non-small cell lung cancer), 10 µM, read-out: GI%
  inhibition at 10 µM: > 100%
HOP-62
  GI50: 4.68 µM
HOP-92
  inhibition at 10 µM: > 100%
  GI50: 5.95 µM
HT29
  inhibition at 10 µM: > 100%
  GI50: 2.98 µM
IGROV1
  inhibition at 10 µM: 92.4%
  GI50: 11 µM
KM12
  inhibition at 10 µM: > 100%
  GI50: 4.5 µM
MDA-MB-231/ATCC
  inhibition at 10 µM: > 100%
  GI50: 3.39 µM
MDA-MB-435
  inhibition at 10 µM: > 100%
  GI50: 4.13 µM
NCI-H226
  inhibition at 10 µM: > 100%
  GI50: 1.31 µM
NCI-H23
  inhibition at 10 µM: > 100%
  GI50: 4.72 µM
NCI-H460
  inhibition at 10 µM: > 100%
  GI50: 3.19 µM
NCI-H522
  inhibition at 10 µM: > 100%
  GI50: 4.9 µM
NCI/ADR-RES
  inhibition at 10 µM: 24.3%
OVCAR-3
  inhibition at 10 µM: > 100%
  GI50: 2.28 µM
PC-3
  inhibition at 10 µM: > 100%
  GI50: 5.73 µM
RXF 393
  inhibition at 10 µM: > 100%
  GI50: 2.22 µM
SF-268
  inhibition at 10 µM: > 100%
  GI50: 4.4 µM
SF-295
  inhibition at 10 µM: > 100%
  GI50: 4.18 µM
SK-MEL-28
  inhibition at 10 µM: > 100%
  GI50: 1.83 µM
SK-MEL-5
  inhibition at 10 µM: > 100%
  GI50: 2.83 µM
SK-OV-3; SK-OV-3 (Ovarian cancer), 10 µM, read-out: GI%
  inhibition at 10 µM: > 100%
SK-OV-3
  GI50: 15 µM
SN12C
  GI50: 3.22 µM
SNB-75
  inhibition at 10 µM: > 100%
  GI50: 1.28 µM
U251
  inhibition at 10 µM: > 100%
  GI50: 2.59 µM

## O=C(NN=Cc1ccccc1O)c1ccc2[nH]c(-c3ccc(Cl)cc3)nc2c1 [8o, 2-(4-Chlorophenyl)-N'-(2-hydroxybenzylidene)-1H-benzo[d]imidazole-5-carbohydrazide]
A498
  inhibition at 10 µM: 53.9%
  GI50: 8.1 µM
CCRF-CEM
  inhibition at 10 µM: > 100%
  GI50: > 38.8 µM
HCT-15
  inhibition at 10 µM: > 100%
  GI50: 0.2 µM
HOP-62
  GI50: 0.84 µM
HOP-92
  inhibition at 10 µM: > 100%
  GI50: > 38.8 µM
HT29
  inhibition at 10 µM: > 100%
  GI50: 1.08 µM
IGROV1
  inhibition at 10 µM: 84.3%
  GI50: 0.95 µM
KM12
  inhibition at 10 µM: 85.4%
  GI50: 1.24 µM
MDA-MB-231/ATCC
  inhibition at 10 µM: > 100%
  GI50: 1.41 µM
MDA-MB-435
  inhibition at 10 µM: > 100%
  GI50: 0.53 µM
NCI-H226
  inhibition at 10 µM: 88.6%
  GI50: 4.33 µM
NCI-H23
  inhibition at 10 µM: > 100%
  GI50: 0.31 µM
NCI-H460
  inhibition at 10 µM: > 100%
  GI50: 0.25 µM
NCI-H522
  inhibition at 10 µM: > 100%
  GI50: 0.26 µM
NCI/ADR-RES
  inhibition at 10 µM: 56.4%
NCI/ADR-RES; NCI/ADR-RES, Ovarian cancer, five-dose
  GI50: 1.15 µM
OVCAR-3
  inhibition at 10 µM: > 100%
  GI50: 0.19 µM
PC-3
  inhibition at 10 µM: 78.5%
  GI50: > 38.8 µM
RXF 393
  inhibition at 10 µM: > 100%
  GI50: 0.79 µM
SF-268
  inhibition at 10 µM: > 100%
  GI50: 0.84 µM
SF-295
  inhibition at 10 µM: > 100%
  GI50: 1.6 µM
SK-MEL-28
  inhibition at 10 µM: 78.2%
  GI50: 1.85 µM
SK-MEL-5
  inhibition at 10 µM: > 100%
  GI50: 0.51 µM
SK-OV-3
  GI50: 4.53 µM
SN12C; SN12C (Renal cancer), 10 µM, read-out: GI%
  inhibition at 10 µM: 59.4%
SN12C
  GI50: 3.41 µM
SNB-75
  inhibition at 10 µM: > 100%
  GI50: 0.74 µM
U251
  inhibition at 10 µM: > 100%
  GI50: 0.83 µM
